Here are results for one molecule from patent US11938129B2, “Methods and compositions for the treatment of vascular disease” (THE GENERAL HOSPITAL CORPORATION, priority 2018, dated 2024).

One experiment deals with VSMCs. Put plainly: cytoskeletal architecture of VSMCs treated with GSK343. The format is cell-based, mouse. The procedure:
Primary human aortic smooth muscle cells (HAoSMC) from healthy donors were purchased from Cell Applications Inc., California, USA (Cat. #354K-05a). Primary aneurysm aortic SMCs were isolated from fresh TAA tissue at the moment of surgery by standard explant of the aortic media. Mouse aortic SMCs were isolated by standard explant of the ascending section of the aortas from wild-type or Fbn1ci°39G1+ mice. Smooth muscle cell identity was assessed by immunofluorescence staining of contractile markers including SM22a, Calponin, Smoothelin and Vinculin. In order to preserve cell identity all experiments were carried out at passages 1-5 (Timraz et al., 2016). Human and murine SMCs were grown with smooth muscle cell growth medium from Cell Applications Inc. (Cat. #311-500). […] Fresh media containing GSK343 was supplied daily. For GSK343/TGF81 (10 ng/mL) combo treatment, cells were first treated with complete media containing GSK343 at concentration of 10 nM during the 2 first days followed by GSK343/TGFβ combination treatment the next 2 days. Prior to cellular collection cells were washed with sterile PBS and RNA or protein extraction were performed as described above.

A further experiment deals with VSMC phenotypic markers. Briefly: expression of VSMC phenotypic markers in aortas of treated Fbn1C1039G/+ mice. The conditions noted are these: aortas of Fbn1C1039G/+ mice treated from two to six months. The format is in vivo, mouse. The procedure: Total RNA was prepared from tissue or primary cells using RNeasy kit (Qiagen) following the manufacturer's protocol. The cDNA was prepared by reverse transcription, and expression of SMC contractile genes were analyzed by qRT-PCR on SYBR green system (Applied Biosystem, Foster city, CA). 50 pL of plasma from wild-type or Fbn1cl° 39G1+ mice were used to prepare total RNA as mentioned above. Expression results were analyzed by the ddCT method and GAPDH (encoding glyceraldehyde-3-phosphate dehydrogenase) was used as a housekeeping gene. Fold change were calculated by taking the average over all the control samples as the baseline. […] The supernatant was removed and the vesicular fraction was resuspended with 750 pL of TRizol reagent followed by RNA extraction using the RNeasy kit (Qiagen) according to the manufacturer's protocol. Cohorts of 8-week-old wild-type or Fbn1cw3gGi+ mice were treated with oral administration in drinking water of either Losartan or GSK343 for 20 weeks (FIG. 5). […] Then 200 mL of drinking water was supplemented with 250 pL of GSK343 stock solution. Control group for either drug treatment was given with equal volumes of sterile water. Bottles containing either losartan or GSKS343 were replaced with fresh water supplied with drugs every 3 days. For experiments described in FIG. 5A-5C, 16-week-old wild-type or Fbnicw3gGi+ mice were treated for 8 weeks and as described above. Additionally, a group of mice were given a combination of both losartan and GSK343 at the same concentrations as of other single drug treatments. Aortic dimensions were monitored monthly by echocardiograms as mentioned above.

A further experiment concerns SM22a. Briefly: immunostaining of SM22a protein in aortas of treated Fbn1C1039G/+ mice. The format is in vivo, mouse. Conditions: compared to control Fbn1C1039G/+ mice. The procedure: Latex was injected into the left ventricular apex under low pressure until it was visible in the femoral artery. Animals were then fixed in Formalin (10%) for 24 hours before transfer to 70% ethanol for dissection and storage. Aortas were then removed from the animals or dissected in situ for photography prior to paraffinization and sectioning (10 pM). Slides were produced for tissue staining or stained with standard stains including H&E staining, collagen deposition (Trichrome Stain (Masson) Kit, Sigma, USA), elastin (Verhoeff-Van Gieson, Thermo Scientific, MI, USA) or F-actin (ActinGreen™ 488 ReadyProbes, ThermoFisher Scientific, USA) for quantitative analysis. Elastin integrity score was rated by blinded observers and graded on an arbitrary scale of 5 (indicating high quality elastic fiber) to 1 (indicating severe elastin fragmentation). For nuclear staining aortas from human and mice were cryosectioned using OCT standard protocol as described previously (Fischer et al., 2008). Cohorts of 8-week-old wild-type or Fbn1cw3gGi+ mice were treated with oral administration in drinking water of either Losartan or GSK343 for 20 weeks (FIG. 5). […] Then 200 mL of drinking water was supplemented with 250 pL of GSK343 stock solution. […] Aortic dimensions were monitored monthly by echocardiograms as mentioned above.

Each structure is given as a SMILES string.

As for `CCCc1cc(C)[nH]c(=O)c1CNC(=O)c1cc(-c2ccnc(N3CCN(C)CC3)c2)cc2c1cnn2C(C)C` [GSK343], the cytoskeletal architecture entry in the experiment with VSMCs is reported as “improved cytoskeletal architecture”. Also, in the experiment with VSMC phenotypic markers, the contractile elements result was “better recovery of contractile elements” and the “synthetic markers (Col1a1, Col3a1, Gja1, Mmp2)” value was “inability to repress synthetic markers”. Besides, the “SM22a protein expression (immunostaining of aortas)” value in the experiment on SM22a is “recovery of SM22a protein expression”.
